Laboratory results taken from BindingDB's records for doi:10.1021/jm200304y (Kyoto University, 2011).

Assay: Inhibition of SREBP2 activation expressed in CHO-K1 cells co-transfected with pSRE-Luc plasmid assessed as inhibition of luciferase expression after 20 hrs by luciferase reporter gene assay

Row | Compound | IC50 [µM]
1 | CCCc1cc(-c2nc(-c3ccccc3O)cs2)ccn1 | 14.4
2 | CCCc1cc(-c2nc(-c3cccs3)cs2)ccn1 | 14.7
3 | Cc1ccc(-c2csc(-c3ccccc3)n2)cc1 | 18.6
4 | CCCc1cc(-c2nc(-c3ccc(OC)cc3)cs2)ccn1 | 13
5 | CCCc1cc(-c2nc(-c3ccc(NC(=O)OC(C)(C)C)cc3)cs2)ccn1 | 1.9
6 | CCCc1cc(-c2nc(-c3ccc(NCc4ccccc4)cc3)cs2)ccn1 | 3
7 | CCCc1cc(-c2nc(-c3cccc(O)c3)cs2)ccn1 | 9.5
8 | CCCc1cc(-c2ccc(-c3ccc(C)cc3)cc2)ccn1 | > 30
9 | CCCc1cc(-c2nc(-c3ccc(F)cc3)cs2)ccn1 | 12.4
10 | CCCc1cc(-c2nc(-c3ccc(N)cc3)cs2)ccn1 | 8.6
11 | CCCc1cc(-c2nc(-c3ccc(C)cc3)cs2)ccn1 [SMR000221636] | 5.6
12 | CCCc1cc(-c2nc(-c3ccc(Br)cc3)cs2)ccn1 | 9.8
13 | CCCc1cc(-c2nc(-c3cccc(OC)c3)cs2)ccn1 | 10.2
14 | CCCc1cc(-c2nc(-c3ccc(NS(C)(=O)=O)cc3)cs2)ccn1 | 0.7
15 | CCCc1cc(-c2nc(-c3ccccc3)cs2)ccn1 | 23
16 | CCCc1cc(-c2nc(-c3ccccc3OC)cs2)ccn1 | 3.2
17 | CCCc1cc(-c2nc(-c3ccc(NCC4CC4)cc3)cs2)ccn1 | 4.9
18 | Cc1ccc(-c2csc(-c3ccncc3)n2)cc1 | > 30
19 | CCCc1cc(-c2nc(-c3ccc(OC(=O)c4ccccc4)cc3)cs2)ccn1 | 7.7
20 | CCCc1cc(-c2nc(-c3ccc(Cl)cc3)cs2)ccn1 [SMR000177579] | 10.7
21 | C[C@H](CCCC(C)(C)O)[C@H]1CC[C@H]2[C@@H]3CC=C4C[C@@H](O)CC[C@]4(C)[C@H]3CC[C@]12C [(1S,2R,5S,10S,11S,14R,15R)-14-[(2R)-6-hydroxy-6-methylheptan-2-yl]-2,15-dimethyltetracyclo[8.7.0.0^{2,7}.0^{11,15}]heptadec-7-en-5-ol] | 0.3
22 | CCCc1cc(-c2nc(-c3ccc(O)cc3)cs2)ccn1 | 9.6
23 | CCCc1cc(-c2nc(-c3ccc(NS(=O)(=O)c4ccc(C)cc4)cc3)cs2)ccn1 | 2.3
24 | CCCc1cc(-c2nc(-c3ccc(NC(C)C)cc3)cs2)ccn1 | 2.8
25 | CCCc1cc(-c2nc(-c3ccc(NS(=O)(=O)c4cccs4)cc3)cs2)ccn1 | 0.9
26 | CCc1cc(-c2nc(-c3ccc(C)cc3)cs2)ccn1 | 6.8
27 | CCCc1cc(-c2nc(-c3ccc(NC(C)=O)cc3)cs2)ccn1 | 7.1
